Results on two compounds are retold here after paper PMC12338828, “Evaluation of organotin (IV) dithiocarbamate compounds as potential anti-leukemia agents towards CCRF-CEM (CCL-119) cell line: Cytotoxic, apoptotic, cell cycle and genotoxic study” (PLOS One, 2025).

The test system of data set [1] is CCL-119 cells. As to the kind of experiment: MTT cytotoxicity assay. The following applies: for cell viability at 0.31 µM / cell viability at 0.63 µM / cell viability at 1.25 µM / cell viability at 2.50 µM / cell viability at 5.00 µM: 24 hours, single replicates n1-n3, untreated = 100.00; for cell viability at 2.50 µM: 2.5 µM; for IC50: read-out: IC50 (µM) CCL-119, 24 hours of exposure, mean ± SEM, n = 3. The protocol:
The T-acute lymphoblastic leukemia cell line, CCRF-CEM (CCL-119™), and a non-cancerous cell, WIL2-NS (CRL-8155™), were purchased from the American Type Culture Collection (ATCC). Both are suspension types of cells and were cultured in Roswell Park Memorial Institute Medium 1640 (RPMI-1640) (Sigma-Aldrich), supplemented with 10% Fetal Bovine Serum (FBS) (Capricorn Scientific) and 1% penicillin-streptomycin (Nacalai Tesque) to obtain the complete growth medium and were incubated at 37 °C with a 5% CO2 incubator. Both suspension cells are used for tests when the cells’ passage becomes passage 3–10 (maximum).
All stock solutions of the organotin (IV) dithiocarbamate compounds were prepared at 10 mM and dissolved in dimethyl sulphoxide (DMSO) (ChemAR®). The stock solutions were stored at 4°C; fresh dilutions were made by adding the RPMI-1640 medium before the experiment. The dilution is carried out using the serial dilution method to obtain the desired concentrations, which are 5 µM, 2.5 µM, 1.25 µM, 0.63 µM, 0.32 µM, and 0.16 µM in this study. Vincristine (VCR) is used as a positive control in this study.
Both CCL-119 and WIL2-NS cells were seeded in a 96-well plate at a final concentration of 5 x 10^5 cells/well and treated with 5 µM, 2.5 µM, 1.25 µM, 0.63 µM, 0.32 µM, and 0.16 µM of organotin (IV) dithiocarbamate compound for 24 hours at 37°C with 5% CO2. VCR was used as a positive control in this study, while cells without treatment were used as a negative control. After 24 hours of exposure, 20 µL of MTT (Merck) salt solution was added into each well and incubated for another 4 hours. The plate was wrapped with aluminium foil as MTT salt is light sensitive. After 4 hours, the purple crystal formazan was formed. All the medium was removed carefully from each well, and 200 µL DMSO was added to each well to dissolve the purple formazan crystal. Then, the plates were incubated for an additional 15 minutes. The results were analyzed and recorded using an ELISA microplate reader at 570 nm. The data was then plotted into a graph, and IC50 values were determined.
The selectivity index (SI) is determined by dividing the cytotoxic activity (IC50 value) of each compound on a non-cancerous cell line (WIL2-NS) by the leukemia cell line (CCL-119). […] WIL2- NS cell lines were selected as the comparator because it is a non-cancerous human B lymphoblast cell line, which is like CCL-119 (T-lymphoblastic leukemia), derived from lymphocytes. This choice ensures that comparisons are made between biologically similar cell types, minimizing variability that could arise from differences in tissue origin or lineage.
(In general: Tetrazolium dyes change colour on reduction, which living cells bring about.)

The subject of data set [2] is CCL-119 cells. The experiment in a line: Mode of cell death, Annexin V-FITC/PI staining (flow cytometry). The following applies: for Early Apoptosis (Q4) / Late Apoptosis (Q2) / Necrosis (Q1) / Viable (Q3): 24 hours at IC50, single replicates n1-n3; for cell death through apoptosis (population of cells): 24 hours, treated at IC50, early + late apoptosis. It is filed as cell-based. The protocol: The mode of cell death can be observed through the Annexin V-FITC/PI staining (BD, USA). The result of this test is either apoptosis or necrosis. […] VCR was used as a positive control, while cells without any treatment were used as a negative control. Then, the plate was incubated for 24 hours. After the incubation, the cell suspension in each well was collected into different Eppendorf tubes. The tubes were then centrifuged for 5 minutes at 1500 rpm at 4°C. After the centrifuge, the supernatant in the tubes was removed, and the cell pellets were washed twice with cold PBS. Then, centrifuge the tubes again and remove the supernatant. Next, 100 µL of Annexin V binding buffer was resuspended in each tube, and 5 µL Annexin V-FITC was pipetted into the tube to stain the cells for 15 minutes at room temperature, dark. After that, 5 µL of propidium iodide was piped into the tube for 5 minutes. The staining process is done in dark conditions. Lastly, the sample was transferred into the Falcon tube, and each tube was resuspended in 400 µL of Annexin V binding buffer. The sample was analyzed using a flow cytometer (BD FACS Canto II) within one hour.
On the technique in general: A flow cytometer gives signals particle by particle.

For data set [3], the system named is CCL-119 cells. As to the kind of experiment: Cell cycle analysis (PI/RNase staining). It is filed as cell-based. The following applies: 24 hours at IC50; single replicates n1-n3. As for the experimental part:
The cells were cultured and seeded in a 6-well plate at 1 x 10^6 cells/mL. VCR was used as a positive control, and untreated cells were used as a negative control in this assay. The concentration of the compounds and VCR was followed by IC50 values that were taken from the MTT assay.
After 24 hours of incubation, all cells in the plate were transferred to the Eppendorf tube and centrifuged for 5 minutes at 4°C at 1500 rpm. After centrifuging, the supernatant was removed, and cells were washed with 500 µL cold PBS three times. The pellet was fixed by using 70% ethanol overnight at −20°C. Next, the samples were stained with 500 µL of PI/RNase staining buffer and incubated for 15 minutes. The samples were then transferred into Falcon tubes. The data was recorded using a flow cytometer and analyzed using ModFit LT software.

Another data set concerns WIL2-NS cells. Also noted: method as in Rasli et al. (2023). The following applies: non-cancerous cells; 24 hours of exposure; graph referred to earlier paper; ref Rasli et al. (2023); cited from earlier work.
For data set [4], the system named is CCL-119 cells. As to the kind of experiment: Alkaline comet assay. The following applies: for % DNA intensity / Tail moment: single replicates n1-n3. The data set is classed as cell-based. As for the experimental part: VCR was used as a positive control, and untreated cells were used as a negative control in this assay. The cells were incubated for 1 hour. After incubation, cells in each well were transferred to the Eppendorf tube to centrifuge for 5 minutes at 4°C by using a refrigerated microcentrifuge. The supernatant was removed, and the samples were washed with 1 mL of cold PBS. This process was repeated 3 times. After completion of the process, the supernatant was removed, and the pellet was left for a while on top of the ice while preparing the slide.
About 140 µL of normal melting agar (NMA) is pipetted on top of the fully frosted slide, and a cover slip is put on the agar for 5 minutes or until the agar fully solidifies. After that, the cover slip was removed, and 80 µL of low melting agar (LMA) was added to an Eppendorf tube containing the pellet of cells. The suspension was then transferred into a frosted slide with NMA agar. The cover slip was then put back on top of the frosted slide for 10 minutes or until dry. Next, the slide was transferred into a Coplin jar that contained lysis buffer solution and Triton X-100. The slides were then incubated at 4°C overnight. The slides were arranged on an electrophoresis tank filled with electrophoresis buffer for 20 minutes. Electrophoresis is done for another 20 minutes at 25 V with 300 mA. The slides were washed with a neutralization buffer solution 3 times at a 5-minute time interval. Finally, 30 µL of ethidium bromide (50 µg/mL) was added, and the slide was observed by using fluorescence microscopy (OLYMPUS BX51TR). CometScore software is used to analyze the DNA damage of the cells. The comet assay was performed under alkaline conditions (pH > 13) to detect both single- and double-strand DNA breaks.

SMILES strings stand for the structures. Where “and” joins values, the source holds several entries; their conditions need not be identical. Equal entries are not always repeated. Where two headings read alike, the source gives them in different places.

For the compound `CC(C)N(C(=S)[S][Sn]([CH3])([CH3])[S]C(=S)N(C(C)C)C(C)C)C(C)C` [ODTC 6, dimethyltin (IV) diisopropyl dithiocarbamate], in the data set on CCL-119 cells [1], the cell viability (usually a read-out of living cells in per cent, often relative to untreated cells) at 0.31 µM was 58.47% and 122.11% and 74.00%; the “cell viability at 0.63 µM” value is 54.60% and 100.55% and 42.63%; the “cell viability at 1.25 µM” value was 68.83% and 73.56% and 74.68%; the “cell viability at 2.50 µM” value is 43.76% and 67.94% and 56.55%. Besides, in the data set with CCL-119 cells [1], the “cell viability at 5.00 µM” value is 56.86% and 66.74% and 57.64%; the IC50 (as a rule, the concentration at which inhibition is half-maximal) turned out to be 3.1 ± 1.08 µM. Moreover, in the data set on CCL-119 cells [2], the “Early Apoptosis (Q4)” value is 44.7% and 48.9% and 45.6%; the “Late Apoptosis (Q2)” value was 33.5% and 23.8% and 26.2%; the “Necrosis (Q1)” value is 0.1% and 0.3% and 0.2%; the “Viable (Q3)” value was 21.6% and 27% and 28.1%. Further, in the data set with CCL-119 cells [2], the “cell death through apoptosis (population of cells)” value stood at 74.2%. Moreover, in the data set on CCL-119 cells [3], the “cells in G0/G1 phase” value is 65.00% and 60.00% and 55.00%; the “cells in G2/M phase” value was 4.80% and 5.00% and 2.80%; the “cells in S phase” value was 30.20% and 35.00% and 42.20%. Moreover, the IC50 in the data set with WIL2-NS cells was 5 ± 1.04 µM. The “DNA damage / genotoxic effect (in words)” value in the data set on CCL-119 cells [4] is listed as “no DNA damage”. For the same compound, in the data set on CCL-119 cells [4] (1 hour of exposure), the “% DNA intensity” value was 4.005% and 4.8% and 5.931%; the Tail moment is 3.51 A.U and 4.102 A.U and 5.014 A.U.
With `CCN(CC)C(=S)[S][Sn]([CH3])([CH3])[S]C(=S)N(CC)CC` [ODTC 7, dimethyltin (IV) diethyl dithiocarbamate], in the data set on CCL-119 cells [1], the “cell viability at 0.31 µM” value is 53.85% and 25.00% and 27.93%; the “cell viability at 0.63 µM” value was 22.79% and 38.51% and 14.94%; the “cell viability at 1.25 µM” value is 25.40% and 25.00% and 5.26%; the “cell viability at 2.50 µM” value was 11.18% and 20.05% and 9.03%. Besides, in the data set with CCL-119 cells [1], the “cell viability at 5.00 µM” value is 4.79% and 42.34% and 14.76%; the IC50 is 0.5 ± 0.3 µM. In the data set on CCL-119 cells [2], the “Early Apoptosis (Q4)” value is 24.7% and 24.4% and 29.9%; the “Late Apoptosis (Q2)” value is 70.3% and 71.5% and 65.3%; the “Necrosis (Q1)” value is 0.7% and 0.4%; the “Viable (Q3)” value was 4.4% and 3.7% and 4.2%. Moreover, the “cell death through apoptosis (population of cells)” value with CCL-119 cells [2] is 95.6%. In addition, in the data set with CCL-119 cells [3], the “cells in G0/G1 phase” value is 70.20% and 67.80% and 60.00%; the “cells in G2/M phase” value was 1.80% and 0.20% and 1.00%; the “cells in S phase” value was 28.00% and 32.00% and 39.00%. Also, the IC50 in the data set with WIL2-NS cells was 0.5 ± 0.34 µM. In addition, the “DNA damage / genotoxic effect (in words)” value with CCL-119 cells [4] (1 hour of exposure, damage when TM > 5 A.U. and TI > 10%) was “no DNA damage”. Also, in the data set with CCL-119 cells [4] (1 hour of exposure), the “% DNA intensity” value was 6.521% and 7.002% and 7.823%; the Tail moment is 5.822 A.U and 6.511 A.U and 7.52 A.U.
